In US12624039B2, “BTK inhibitors” (DIZAL (JIANGSU) PHARMACEUTICAL CO., LTD., priority 2020, dated 2026):

Tests used:
[1] = molecular target: T1, Recombinant BTK wild type (BTK WT) (Homo sapiens, UniProt Q06187); assay: BTK WT HTRF kinase assay; assay type: biochemical; conditions: 30 min pre-incubation, 120 min reaction
T1 construct: purchased Thermo fisher
Description: Recombinant BTK wild type (BTK WT) was purchased from Thermo fisher.
In brief, recombinant kinases were pre-incubated in the presence or absence of compound at room temperature for 30 minutes. The reaction was initiated by the addition of the ATP and substrate peptide which could be phosphorylated by kinases in the reaction. After 120 minutes incubation, the reaction was stopped by the addition of the detection reagent mix containing EDTA.

[2] = molecular target: T2, p-BTK (Phospho-Btk Tyr223) in TMD-8 cells (Homo sapiens, UniProt Q06187); assay: TMD8 cell line p-BTK Elisa assay; assay type: cell-based; conditions: for Maximal Inhibition Level: p-BTK ELISA; for IC50: pervanadate 100 μM, Tyr223 ELISA
T2 construct: endogenous in cells; host or cells: TMD-8
Description: The test compounds were added to the cells and cells were incubated for 0.5 hour at 37° C., 5% CO2. Then pervanadate solution was added to the cells to make a final concentration of 100 μM, and cells were incubated for a further 1 hour at 37° C., 5% CO2. […] The plate was read on a Multiscan Spectrum reader set to 450 nm wavelengths.

TMD-8 cells = assay: TMD-8 anti-proliferation assay; assay type: cell-based
Description: TMD-8 Anti-Proliferation Assay
TMD-8 cells were prepared in RPMI1640 media containing 10% foetal bovine, and plated in 384 well plates at 1500 cells per well, The cells were incubated overnight at 37° C., 5% CO2. After incubation, compounds with different concentration were added to the assay plates and incubate cells for a further 72 hours at 37° C., 5% CO2. Following 72 hours incubation, 15 μl of CellTiter 96® AQueous One Solution Reagent was added to each well and the plates incubated at room temperature for 30 mins. Cell viability was determined using the CellTiter-Glo (Promega, USA). The CellTiter-Glo assay was performed according to the manufacturer's instructions, and luminescence was determined in a multi-label reader (Envision, PerkinElmer, USA). The data were processed in XLfit software.

[3] = In vitro rat hepatocytes clearance assay; assay type: in vitro ADME
Description: (§1) In Vitro Rat/Human Hepatocytes Clearance Assay
(§2) Rat hepatocytes in male gender and human hepatocytes in mixed gender were obtained from commercial vendors (e.g., BioreclamationIVT) and stored at −150° C. prior to use. 10 mM stock solutions of tested compounds were prepared in DMSO. Thawing medium and supplement incubation medium (serum-free) were placed in a 37° C. water bath for at least 15 minutes prior to use. Stock solutions were diluted to 100 μM by combining 198 μL acetonitrile and 2 μL of 10 mM stock solution.
(§3) Vials of cryopreserved hepatocytes were removed from storage, ensured that vials remain at cryogenic temperatures. The vials were thawed in a 37° C. water bath with gently shaking. Vials were kept in a water bath until all ice crystals had dissolved and were no longer visible. Vials were sprayed with 70% ethanol before being transferred to a biosafety cabinet. And then the contents were poured into the 50 mL thawing medium conical tube. Vials were centrifuged at 100 g for 10 minutes at room temperature. Thawing medium was aspirated and hepatocytes were resuspended with serum-free incubation medium to yield ^˜1.5×10^6 cells/mL.
(§4) Cell viability and density were counted using a Trypan Blue exclusion, and then cells were diluted with serum-free incubation medium to a working cell density of 1×10^6 viable cells/ml. A portion of the hepatocytes at 1×10^6 viable cells/mL was boiled for 10 min prior to adding to the plate as negative control to eliminate the enzymatic activity so that little or no substrate turnover should be observed. The inactivated hepatocytes were used to prepare negative samples, which were used to exclude the misleading factor that resulted from instability of chemical itself.
(§5) Aliquots of 247.5 μL hepatocytes were dispensed into each well of a 96-well non-coated plate. The plate was placed in the incubator on an orbital shaker for approximately 10 minutes. Aliquots of 2.5 μL of the 100 μM test compounds were added into respective wells of the non-coated 96-well plate to start the reaction. This assay was performed in duplicate. The plate was incubated in the incubator on an orbital shaker for the designed time points. 20 μL of contents were transferred and mixed with 6 volumes (120 μL) of cold acetonitrile with internal standard to terminate the reaction at time points of 5, 15, 30, 45, 60, 80 and 100 minutes. Samples were centrifuges for 20 minutes at 4000 g and aliquots of 100 μl of the supernatants were used for LC-MS/MS analysis for measurement of test compounds.
(§6) In vitro hepatocyte clearance was estimated based on determination of elimination half-life (T1/2) of compounds disappearance from their initial concentrations. Peak area ratios of each compound (test or control) to IS was calculated. Ln (% Control) versus Incubation Time (min) curve was plotted, and the slope of a linear fitting line was calculated. Drug elimination rate constant k (min-1), T1/2 (min), and in vitro intrinsic clearance CLint (μL/min/E6) was calculated according to the following equations: k=−slope T1/2=0.693/k CLint=k/Chep • Where Chep (cells×μL-1) is the cell concentration in the incubation system. Procedure for Log D Determination

[4] = In vitro human hepatocytes clearance assay; assay type: in vitro ADME
Description: as §1, §2, §3, §4, §5, §6

Hu Mic Clint = assay type: in vitro ADME, human; conditions: for microsomal CLint: human, microsomes
[5] = molecular target: T3, BTK(WT) in HEK293-BTK(WT) cells (Homo sapiens, UniProt Q06187); assay: HEK293-BTK(WT) p-BTK ELISA; assay type: cell-based; conditions: 1.5 hour
T3 construct: Full-length cDNAs of BTK containing C481S mutation was generated by mutagenesis; expressed in transfected cells
Description: (§7) The mutated BTK cDNAs were confirmed by sequencing. […] The transfected cells were selected in 2 μg/mL of puromycin. Stable polyclonal cell lines were confirmed by WB and used for further study. […] All the cells were maintained in a humidified incubator at 37° C. with 5% CO2.
(§8) The test compounds were added to the cells and cells were incubated for 1.5 hour at 37° C., 5% CO2. […] The plate was read on a Multiscan Spectrum reader set to 450 nm wavelengths. The data were processed in Graph Pad Prism software.

[6] = molecular target: T4, BTK-C481S in HEK293-BTK(C481S) cells (Homo sapiens, UniProt Q06187, C481S); assay: HEK293-BTK(C481S) p-BTK ELISA; assay type: cell-based; conditions: 1.5 hour
T4 construct: Full-length cDNAs of BTK containing C481S mutation was generated by mutagenesis; expressed in transfected cells
Description: as §7, §8

T1 sequence (Q06187 whole entry): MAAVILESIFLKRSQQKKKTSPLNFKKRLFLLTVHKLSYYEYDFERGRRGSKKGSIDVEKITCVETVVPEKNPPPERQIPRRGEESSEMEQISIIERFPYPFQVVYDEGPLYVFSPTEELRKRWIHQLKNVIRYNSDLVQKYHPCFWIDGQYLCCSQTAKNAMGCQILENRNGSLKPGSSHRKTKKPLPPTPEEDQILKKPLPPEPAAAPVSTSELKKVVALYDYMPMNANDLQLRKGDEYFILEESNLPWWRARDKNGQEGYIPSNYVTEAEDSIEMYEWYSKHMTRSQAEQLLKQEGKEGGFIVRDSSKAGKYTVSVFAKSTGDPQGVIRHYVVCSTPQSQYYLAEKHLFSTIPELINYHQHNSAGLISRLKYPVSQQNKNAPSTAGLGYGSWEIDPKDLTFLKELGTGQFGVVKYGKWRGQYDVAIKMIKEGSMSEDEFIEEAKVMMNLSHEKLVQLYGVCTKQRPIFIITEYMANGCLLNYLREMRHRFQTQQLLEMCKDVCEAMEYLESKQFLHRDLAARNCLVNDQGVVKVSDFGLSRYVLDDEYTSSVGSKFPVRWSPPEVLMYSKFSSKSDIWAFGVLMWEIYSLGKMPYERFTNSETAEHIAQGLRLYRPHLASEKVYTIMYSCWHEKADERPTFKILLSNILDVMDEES
T2 sequence (Q06187 whole entry): as above
T4 sequence (Q06187 whole entry C481S): as the sequence (Q06187 whole entry) above, with C481S counted along it

Structure (SMILES) | IC50 [1] | Maximal Inhibition Level [2] | IC50 [2] | Rat Hep Clint [3] | Human Hep Clint [4] | Hu Mic Clint (Hu Mic Clint) | IC50 [5] | IC50 [6] | microsomal CLint (Hu Mic Clint) | IC50 (TMD-8 cells; 72 hours) | IC50 (TMD-8 cells; Homo sapiens, TMD8, 72 h)
Nc1nccn2c(C3CCC(CO)OC3)nc(-c3ccc(Oc4ccccc4)cc3F)c12 (single isomer, unassigned) [Compound 3, Trans-(5-(8-amino-1-(2-fluoro-4-phenoxyphenyl)imidazo[1,5-a]pyrazin-3-yl)tetrahydro-2H-pyran-2-yl)methanol] | 0.00629 µM | 96.2% | 0.0784 µM | 8.8 μL/min/10∧6 cells | 12.9 μL/min/10∧6 cells | 23.7 µL/min/mg |  |  |  | 0.106 µM | 
Nc1nccn2c(C3CCC(CO)OC3)nc(-c3ccc(Oc4ccccc4)c(F)c3F)c12 (single isomer, unassigned) [Compound 5, (5-(8-amino-1-(2,3-difluoro-4-phenoxyphenyl)imidazo[1,5-a]pyrazin-3-yl)tetrahydro-2H-pyran-2-yl)methanol] | 0.00492 µM | 95.8% | 0.0487 µM | 9.0 μL/min/10∧6 cells | 9.0 μL/min/10∧6 cells | 13.0 µL/min/mg |  |  |  | 0.102 µM | 
Nc1nccn2c(C3CCC(CO)OC3)nc(-c3ccc(Oc4cccc(F)c4F)cc3)c12 (single isomer, unassigned) [Compound 7, (5-(8-amino-1-(4-(2,3-difluorophenoxy)phenyl)imidazo[1,5-a]pyrazin-3-yl)tetrahydro-2H-pyran-2-yl)methanol] | 0.00159 µM | 97.9% | 0.138 µM | 4.9 μL/min/10∧6 cells | 3.3 μL/min/10∧6 cells | 13.3 µL/min/mg |  |  |  | 0.219 µM | 
Nc1ncnn2c(C3CCC(CO)OC3)nc(-c3ccc(Oc4ccccc4)cc3F)c12 (single isomer, unassigned) [Compound 8, (5-(4-amino-5-(2-fluoro-4-phenoxyphenyl)imidazo[5,1-f][1,2,4]triazin-7-yl)tetrahydro-2H-pyran-2-yl)methanol] | 0.00345 µM | 100.9% | 0.0421 µM | 48.5 μL/min/10∧6 cells | 6.1 μL/min/10∧6 cells | 41.3 µL/min/mg |  |  |  | 0.077 µM | 
Nc1ncnn2c(C3CCC(CO)OC3)nc(-c3ccc(Oc4ccccc4)cc3F)c12 (single isomer, unassigned) [Compound 9, (5-(4-amino-5-(2-fluoro-4-phenoxyphenyl)imidazo[1,5-a][1,2,4]triazin-7-yl)tetrahydro-2H-pyran-2-yl)methanol] | 0.00864 µM | 107.7% | 0.123 µM | 27.2 μL/min/10∧6 cells | 5.9 μL/min/10∧6 cells | 34.3 µL/min/mg |  |  |  | 0.161 µM | 
Nc1ncnn2c(C3CCC(CO)OC3)nc(-c3ccc(Oc4ccccc4)cc3F)c12 (single isomer, unassigned) [Compound 11, Trans-(5-(4-amino-5-(2-fluoro-4-phenoxyphenyl)imidazo[5,1-f][1,2,4]triazin-7-yl)tetrahydro-2H-pyran-2-yl)methanol] | 0.00451 µM | 99.3% | 0.0347 µM | 11.7 μL/min/10∧6 cells | 3.6 μL/min/10∧6 cells | 9.3 µL/min/mg |  |  |  | 0.0709 µM | 

Now those with a lower IC50 [1], led by results:

IC50 [1] | Maximal Inhibition Level [2] | IC50 [2] | Rat Hep Clint [3] | Human Hep Clint [4] | Hu Mic Clint (Hu Mic Clint) | IC50 [5] | IC50 [6] | microsomal CLint (Hu Mic Clint) | Structure (SMILES) | IC50 (TMD-8 cells; 72 hours) | IC50 (TMD-8 cells; Homo sapiens, TMD8, 72 h)
0.00049 µM | 97.4% | 0.0307 µM | 7.2 μL/min/10∧6 cells | 5.6 μL/min/10∧6 cells |  | 0.0188 µM | 0.0842 µM | 7.44 µL/min/mg | Nc1nccn2c(C3CCC(CO)OC3)nc(-c3ccc(Oc4ccccc4)c(F)c3F)c12 (single isomer, unassigned) [Compound 4, (5-(8-amino-1-(2,3-difluoro-4-phenoxyphenyl)imidazo[1,5-a]pyrazin-3-yl)tetrahydro-2H-pyran-2-yl)methanol] | 0.0162 µM | 
0.00062 µM | 98.8% | 0.0262 µM | 8.2 μL/min/10∧6 cells | 2.1 μL/min/10∧6 cells |  | 0.0334 µM | 0.0754 µM | 8.8 µL/min/mg | Nc1nccn2c(C3CCC(CO)OC3)nc(-c3ccc(Oc4cccc(F)c4F)cc3)c12 (single isomer, unassigned) [Compound 6, (5-(8-amino-1-(4-(2,3-difluorophenoxy)phenyl)imidazo[1,5-a]pyrazin-3-yl)tetrahydro-2H-pyran-2-yl)methanol] | 0.0274 µM | 
0.00116 µM | 97.9% | 0.0189 µM | 12.4 μL/min/10∧6 cells | 28.9 μL/min/10∧6 cells |  |  |  | 44.9 µL/min/mg | Nc1nccn2c(C3CCC(CO)OC3)nc(-c3ccc(Oc4ccccc4)cc3)c12 (stereo not drawn) [Compound 1, (5-(8-amino-1-(4-phenoxyphenyl)imidazo[1,5-a]pyrazin-3-yl)tetrahydro-2H-pyran-2-yl)methanol] |  | 0.0242 µM
0.00027 µM | 97.0% | 0.0232 µM | 46.8 μL/min/10∧6 cells | 2.0 μL/min/10∧6 cells |  | 0.0176 µM | 0.0468 µM | < 3 µL/min/mg | Nc1ncnn2c(C3CCC(CO)OC3)nc(-c3ccc(Oc4ccccc4)c(F)c3F)c12 (stereo not drawn) [Compound 12, (5-(4-amino-5-(2,3-difluoro-4-phenoxyphenyl)imidazo[1,5-f][1,2,4]triazin-7-yl)tetrahydro-2H-pyran-2-yl)methanol] |  | 
